# Like-named read-outs stand apart in the source and are kept apart here. Positions of bridges follow the written chain, without caps; N, C: chain ends. Non-standard residues stand in square brackets, D forms with d. Residues, ends and D or L forms follow the SMILES beside them. ξ: configuration not given here. *: point of attachment. Phe(4-COOH) = N[C@@H](Cc1ccc(C(=O)O)cc1)C(=O)O; Phe(3-Me) = Cc1cccc(C[C@H](N)C(=O)O)c1; Phe(4-F) = N[C@@H](Cc1ccc(F)cc1)C(=O)O; Bta = N[C@@H](Cc1csc2ccccc12)C(=O)O; Hyp = O=C(O)[C@@H]1C[C@@H](O)CN1; NMeF = CN[C@@H](Cc1ccccc1)C(=O)O; Pip(4-aza) = O=C(O)[C@@H]1CNCCN1; dHyp = O=C(O)[C@H]1C[C@H](O)CN1; NMeNle = CCCC[C@H](NC)C(=O)O; NMeM = CN[C@@H](CCSC)C(=O)O; hSer = N[C@@H](CCO)C(=O)O; NMeA = CN[C@@H](C)C(=O)O; Dab = NCC[C@H](N)C(=O)O; Dap = NC[C@H](N)C(=O)O; Bz = O=C(c1ccccc1)*; ξC = NC(CS)C(=O)O; Sar = CNCC(=O)O
# Tests used:
# [1] = molecular target: T1, Human PD-L1/PD-1 (Homo sapiens, UniProt Q9NZQ7); assay: HTRF PD-1-Ig/PD-L1-His binding assay (human PD-L1); conditions: cluster symbol
# T1 construct: made in house; host or cells: HEK293T
# In short: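 Soluble PD-1-Ig binding to PD-L1-His measured by HTRF in dPBS with 0.1% BSA and 0.05% Tween-20. Detection used europium cryptate anti-Ig antibody (1 nM final) and APC anti-His antibody (20 nM final) added on top of the binding reaction.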
# [2] = molecular target: T2, LK35.2-hPD-L1 cells / PE-labeled PD-1-Ig (Homo sapiens, UniProt Q9NZQ7); assay: LK35.2-hPD-L1 cell binding high-content screening assay; format: cell-based; conditions: cluster symbol
# T2 construct: expressed in transfected cells; host or cells: LK35.2 mouse B cell line
# In short: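 Mouse LK35.2 B cells stably overexpressing human PD-L1 were cultured overnight in RPMI with 10% FCS, then given compound and PE-labeled human PD-1-Ig (1 nM final) for 1 h at 37 °C. After three dPBS washes, bound fluorescence was quantified by high-content imaging.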
# [3] = cell binding assay, cell line not given, read-out: CBA IC50 cluster
# [4] = cell line of CBA not given (LK35.2-hPD-L1 or 293T-hPD-L1), read-out: CBA IC50 cluster
# T1 sequence (Q9NZQ7 with tags, fused parts or gaps): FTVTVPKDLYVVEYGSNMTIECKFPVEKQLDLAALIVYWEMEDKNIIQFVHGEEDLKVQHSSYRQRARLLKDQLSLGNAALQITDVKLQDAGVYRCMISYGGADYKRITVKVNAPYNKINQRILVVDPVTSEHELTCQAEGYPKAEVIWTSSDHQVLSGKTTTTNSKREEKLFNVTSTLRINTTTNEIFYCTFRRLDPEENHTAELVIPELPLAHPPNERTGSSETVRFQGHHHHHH
# T2 sequence (Q9NZQ7 19-290): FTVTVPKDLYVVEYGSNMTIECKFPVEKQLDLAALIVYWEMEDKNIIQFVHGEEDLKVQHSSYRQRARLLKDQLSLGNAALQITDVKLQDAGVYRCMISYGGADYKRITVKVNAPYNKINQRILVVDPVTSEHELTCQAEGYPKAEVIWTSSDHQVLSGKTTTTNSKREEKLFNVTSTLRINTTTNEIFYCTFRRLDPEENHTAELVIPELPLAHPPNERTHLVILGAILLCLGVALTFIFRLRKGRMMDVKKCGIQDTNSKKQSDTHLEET
SMILES,IC50 ([1]; read-out: HTRF IC50 cluster) [nM],"IC50 [2, 3] [nM]","IC50 [2, 4] [nM]",IC50 ([1]; HTRF IC50 cluster) [nM],"IC50 ([2]; CBA IC50 cluster, cell line of CBA not given (LK35.2-hPD-L1 or 293T-hPD-L1)) [nM]"
CCCC[C@H]1C(=O)N(C)[C@@H](CCCC)C(=O)N[C@@H](CC(C)C)C(=O)N[C@H](C(=O)NCC(N)=O)CSCC(=O)N[C@@H](Cc2ccc(O)cc2)C(=O)N(C)[C@@H](C)C(=O)N[C@@H](CC(=O)O)C(=O)N2CCC[C@H]2C(=O)N[C@@H](Cc2cnc[nH]2)C(=O)N[C@@H](CCC(=O)O)C(=O)N2C[C@H](O)C[C@H]2C(=O)N[C@@H](Cc2c[nH]c3ccccc23)C(=O)N[C@@H](CCN)C(=O)N[C@@H](Cc2c[nH]c3ccccc23)C(=O)N1C [Example 5066] ({CH2CO}-Y[NMeA]DPHE[Hyp]W[Dab]W[NMeNle][NMeNle]LCG-NH2; thioether N-14),0.385 to 6.74,0.158 to 4.71,,,
CCCC[C@H]1C(=O)N[C@@H](CCCNC(=N)N)C(=O)NC(C(=O)NCC(N)=O)CSCC(=O)N[C@@H](Cc2ccc(O)cc2)C(=O)N(C)[C@@H](C)C(=O)N[C@@H](CC(N)=O)C(=O)N2CCC[C@H]2C(=O)N[C@@H](Cc2cnc[nH]2)C(=O)N[C@@H](CC(C)C)C(=O)N2C[C@H](O)C[C@H]2C(=O)N[C@@H](Cc2c[nH]c3ccccc23)C(=O)N[C@@H](CO)C(=O)N[C@@H](Cc2csc3ccccc23)C(=O)N(C)[C@@H](C)C(=O)N1C (stereo partly shown) [Example 9056] ({CH2CO}-Y[NMeA]NPHL[Hyp]WS[Bta][NMeA][NMeNle]R[ξC]G-NH2; thioether N-14),0.385 to 6.74,0.158 to 4.71,,,
CCCC[C@H]1C(=O)N2C[C@@H](O)C[C@@H]2C(=O)N[C@@H](CC(=O)O)C(=O)N[C@@H](C(C)C)C(=O)N(C)[C@@H](Cc2ccccc2)C(=O)N[C@@H](Cc2ccc(O)cc2)C(=O)N(C)CC(=O)N[C@@H](Cc2c[nH]c3ccccc23)C(=O)N[C@@H](Cc2ccc(O)cc2)C(=O)N[C@@H](CC(C)C)C(=O)N[C@H](C(=O)NCC(N)=O)CSCC(=O)N[C@@H](Cc2ccccc2)C(=O)N(C)[C@@H](Cc2ccccc2)C(=O)N1C [Example 3588] ({CH2CO}-F[NMeF][NMeNle][dHyp]DV[NMeF]Y[Sar]WYLCG-NH2; thioether N-13),6.76 to 30.3,0.158 to 4.71,,,
CCCC[C@H]1C(=O)N(C)[C@@H](CCCC)C(=O)N[C@@H](CCCNC(=N)N)C(=O)N[C@H](C(=O)NCC(N)=O)CSCC(=O)N[C@@H](Cc2cccc(C)c2)C(=O)N(C)[C@@H](C)C(=O)N[C@@H](CC(N)=O)C(=O)N2CCC[C@H]2C(=O)N[C@@H](Cc2cnc[nH]2)C(=O)N[C@@H](CC(C)C)C(=O)N(C)CC(=O)N[C@@H](Cc2c[nH]c3ccccc23)C(=O)N[C@@H](CO)C(=O)N[C@@H](Cc2c[nH]c3ccccc23)C(=O)N1C [Example 1097] ({CH2CO}-[Phe(3-Me)][NMeA]NPHL[Sar]WSW[NMeNle][NMeNle]RCG-NH2; thioether N-14),6.76 to 30.3,,4.78 to 72.9,,
CCCC[C@H]1C(=O)N(C)[C@@H](CCCC)C(=O)N[C@@H](C)C(=O)N[C@H](C(N)=O)CSCC(=O)N[C@@H](Cc2ccc(O)cc2)C(=O)N(C)[C@@H](C)C(=O)N[C@@H](CCC(=O)O)C(=O)N2CCC[C@H]2C(=O)N[C@@H](Cc2cnc[nH]2)C(=O)N[C@@H](CCN)C(=O)N2C[C@H](O)C[C@H]2C(=O)N[C@@H](Cc2c[nH]c3ccccc23)C(=O)N[C@@H](CO)C(=O)N[C@@H](Cc2c[nH]c3ccccc23)C(=O)N1C [Example 1239] ({CH2CO}-Y[NMeA]EPH[Dab][Hyp]WSW[NMeNle][NMeNle]AC-NH2; thioether N-14),6.76 to 30.3,,4.78 to 72.9,,
CCCC[C@H]1C(=O)N[C@@H](CCCNC(=N)N)C(=O)N[C@H](C(=O)NCC(N)=O)CSCC(=O)N[C@@H](Cc2ccccc2)C(=O)N(C)[C@@H](C)C(=O)N[C@@H](CC(N)=O)C(=O)N2CCC[C@H]2C(=O)N[C@@H](Cc2cnc[nH]2)C(=O)N[C@@H](CC(C)C)C(=O)N(C)CC(=O)N[C@@H](Cc2c[nH]c3ccccc23)C(=O)N[C@@H](CO)C(=O)N[C@@H](Cc2c[nH]c3ccccc23)C(=O)N[C@@H](CNC(=O)c2ccccc2)C(=O)N1C [Example 1013] ({CH2CO}-F[NMeA]NPHL[Sar]WSW[Dap](Bz)[NMeNle]RCG-NH2; thioether N-14),,,,> 30.5,> 74.3
CCCC[C@H]1C(=O)N(C)[C@@H](CCCC)C(=O)N[C@@H](CCCNC(=N)N)C(=O)NC(C(=O)NCC(N)=O)CSCC(=O)N[C@@H](Cc2ccc(O)cc2)C(=O)N(C)[C@@H](C)C(=O)N[C@@H](CC(N)=O)C(=O)N2CCC[C@H]2C(=O)N[C@@H](Cc2cnc[nH]2)C(=O)N[C@@H](CC(C)C)C(=O)N2C[C@H](O)C[C@H]2C(=O)N[C@@H](Cc2c[nH]c3ccccc23)C(=O)N[C@@H](CCO)C(=O)N[C@@H](Cc2csc3ccccc23)C(=O)N1C (stereo partly shown) [Example 9048] ({CH2CO}-Y[NMeA]NPHL[Hyp]W[hSer][Bta][NMeNle][NMeNle]R[ξC]G-NH2; thioether N-14),0.385 to 6.74,0.158 to 4.71,,,
CCCC[C@H]1C(=O)N(C)[C@@H](COc2cccc(C)c2)C(=O)N[C@@H](CC(C)C)C(=O)N[C@H](C(=O)NCC(N)=O)CSCC(=O)N[C@@H](Cc2ccc(O)cc2)C(=O)N(C)[C@@H](C)C(=O)N[C@@H](CC(N)=O)C(=O)N2CCC[C@H]2C(=O)N[C@@H](CN)C(=O)N[C@@H](CC(C)C)C(=O)N2C[C@H](O)C[C@H]2C(=O)N[C@@H](Cc2c[nH]c3ccccc23)C(=O)N[C@@H](CCN)C(=O)N[C@@H](Cc2c[nH]c3ccccc23)C(=O)N1C [Example 6029],0.385 to 6.74,4.78 to 72.9,,,
CCCC[C@H]1C(=O)N(C)[C@@H](CCCC)C(=O)N[C@@H](CCCNC(=N)N)C(=O)N[C@H](C(=O)NCC(N)=O)CSCC(=O)N[C@@H](Cc2ccc(C(=O)O)cc2)C(=O)N(C)[C@@H](C)C(=O)N[C@@H](CC(N)=O)C(=O)N2CCC[C@H]2C(=O)N[C@@H](Cc2cnc[nH]2)C(=O)N[C@@H](CC(C)C)C(=O)N(C)CC(=O)N[C@@H](Cc2c[nH]c3ccccc23)C(=O)N[C@@H](CO)C(=O)N[C@@H](Cc2c[nH]c3ccccc23)C(=O)N1C [Example 1095] ({CH2CO}-[Phe(4-COOH)][NMeA]NPHL[Sar]WSW[NMeNle][NMeNle]RCG-NH2; thioether N-14),> 30.5,,> 74.3,,
"CCCC[C@H]1C(=O)N(C)CC(=O)N[C@@H](CC(=O)O)C(=O)N[C@@H](CCCNC(=N)N)C(=O)N(C)[C@@H](Cc2ccccc2)C(=O)N[C@@H](Cc2ccc(O)cc2)C(=O)N(C)CC(=O)N[C@@H](Cc2c[nH]c3ccccc23)C(=O)N[C@@H](Cc2ccc(O)cc2)C(=O)N[C@@H](CC(C)C)C(=O)N[C@H](C(=O)NCC(N)=O)CSCC(=O)N[C@@H](Cc2ccccc2)C(=O)N(C)[C@@H](Cc2ccccc2)C(=O)N1C [Example 3151] (HELM PEPTIDE1{[O=C(C[*:3])[*:2]].F.[meF].[CCCC[C@@H](C(=O)[*:2])N(C)[*:1]].[Sar].D.R.[meF].Y.[Sar].W.Y.L.C.G.[am]}$PEPTIDE1,PEPTIDE1,1:R3-14:R3$$$V2.0)",> 30.5,,> 74.3,,
CCCC[C@H]1C(=O)N(C)CC(=O)N[C@@H](CC(=O)O)C(=O)N[C@@H](C(C)C)C(=O)N[C@@H](Cc2ccc(F)cc2)C(=O)N[C@@H](Cc2ccc(O)cc2)C(=O)N(C)CC(=O)N[C@@H](Cc2c[nH]c3ccccc23)C(=O)N[C@@H](Cc2ccc(O)cc2)C(=O)N[C@@H](CC(C)C)C(=O)N[C@H](C(=O)NCC(N)=O)CSCC(=O)N[C@@H](Cc2ccccc2)C(=O)N(C)[C@@H](Cc2ccccc2)C(=O)N1C [Example 3570] ({CH2CO}-F[NMeF][NMeNle][Sar]DV[Phe(4-F)]Y[Sar]WYLCG-NH2; thioether N-13),> 30.5,> 74.3,,,
CCCC[C@H]1C(=O)N(C)[C@@H](CCCC)C(=O)N[C@@H](CC(C)C)C(=O)N[C@H](C(=O)NCC(N)=O)CSCC(=O)N[C@@H](Cc2ccc(O)cc2)C(=O)N(C)[C@@H](C)C(=O)N[C@@H](CC(N)=O)C(=O)N2CCC[C@H]2C(=O)N[C@@H](CN)C(=O)N[C@@H](CC(C)C)C(=O)N2CCNC[C@H]2C(=O)N[C@@H](Cc2c[nH]c3ccccc23)C(=O)N[C@@H](CCN)C(=O)N[C@@H](Cc2c[nH]c3ccccc23)C(=O)N1C [Example 6050] ({CH2CO}-Y[NMeA]NP[Dap]L[Pip(4-aza)]W[Dab]W[NMeNle][NMeNle]LCG-NH2; thioether N-14),0.385 to 6.74,4.78 to 72.9,,,
CCCC[C@H]1C(=O)N(C)[C@@H](CCSC)C(=O)N[C@@H](CCCNC(=N)N)C(=O)NC(C(=O)NCC(N)=O)CSCC(=O)N[C@@H](Cc2ccc(O)cc2)C(=O)N(C)[C@@H](C)C(=O)N[C@@H](CC(N)=O)C(=O)N2CCC[C@H]2C(=O)N[C@@H](Cc2cnc[nH]2)C(=O)N[C@@H](CO)C(=O)N2C[C@H](O)C[C@H]2C(=O)N[C@@H](Cc2c[nH]c3ccccc23)C(=O)N[C@@H](CO)C(=O)N[C@@H](Cc2c[nH]c3ccccc23)C(=O)N1C (stereo partly shown) [Example 9107] ({CH2CO}-Y[NMeA]NPHS[Hyp]WSW[NMeNle][NMeM]R[ξC]G-NH2; thioether N-14),6.76 to 30.3,4.78 to 72.9,,,
CCCC[C@H]1C(=O)N(C)[C@@H](CCCC)C(=O)N[C@@H](CN)C(=O)N[C@H](C(=O)NCC(N)=O)CSCC(=O)N[C@@H](Cc2ccc(O)cc2)C(=O)N(C)[C@@H](C)C(=O)N[C@@H](CC(=O)O)C(=O)N2CCC[C@H]2C(=O)N[C@@H](CN)C(=O)N[C@@H](CC(=O)O)C(=O)N2C[C@H](O)C[C@H]2C(=O)N[C@@H](Cc2c[nH]c3ccccc23)C(=O)N[C@@H](CCN)C(=O)N[C@@H](Cc2csc3ccccc23)C(=O)N1C [Example 1224] ({CH2CO}-Y[NMeA]DP[Dap]D[Hyp]W[Dab][Bta][NMeNle][NMeNle][Dap]CG-NH2; thioether N-14),0.385 to 6.74,,0.158 to 4.71,,

# Source: patent US9850283B2, “Macrocyclic inhibitors of the PD-1/PD-L1 and CD80(B7-1)/PD-L1 protein/protein interactions” (BRISTOL-MYERS SQUIBB COMPANY, priority 2013, dated 2017)
